Data: publication PMC10815238, “New N-Terminal Fatty-Acid-Modified Melittin Analogs with Potent Biological Activity” (International Journal of Molecular Sciences, 2024)

How the values were obtained:
S. aureus ATCC 43300 = assay: Salt sensitivity (MIC in the presence of physiological salts); type: cell-based, Staphylococcus aureus; set-up: key: MIC in μg/mL (two-fold dilutions 256 to 0.25 μg/mL); conditions: for MIC, MgCl2: 1 mM MgCl2, unit not given in Table 4; for MIC, FeCl3: 4 mM FeCl3, unit not given in Table 4; for MIC, KCl: 4.5 mM KCl; for MIC, KCl / MIC, NaCl: unit not given in Table 4; for MIC, NaCl: 150 mM NaCl; for MIC, Control: no added salt, unit not given in Table 4 (Table 3 MIC in μg/mL)
Protocol: (§1) MIC was determined using the broth microdilution method with minor modification. In brief, bacteria (S. aureus ATCC 43300, E. faecalis ATCC 29212, E. coli ATCC 25922, P. aeruginosa ATCC 27853, L. monocytogenes CVCC 3764, B. cereus CVCC 4101, S. Castellani CGMCC 1.1869, and the multidrug-resistant E. coli strain) were cultured in nutrient broth (NB) medium (Macklin, Shanghai, China) to the logarithmic phase and diluted to 1 × 10^6 colony forming units (CFUs)/mL. The MDLs were dissolved to a final concentration of 256~0.25 μg/mL in NB medium using two-fold dilutions. A total of 50 μL of different concentrations of the MDL solutions and an equal volume of bacterial suspension were added to a 96-well plate, which was then incubated at 37 °C for 18 h. The minimum concentrations of the MDLs with no visible growth of bacteria were defined as the corresponding MICs. Media containing bacteria without the MDLs were set as the negative control. Each measurement was performed independently three times.
(§2) This was carried out in triplicate and tested at least twice.

[1] = CD measurements of secondary structure; type: physicochemical; conditions: 0.5 mg/mL, 25 °C
Protocol: The CD spectra of the MDLs were measured at 25 °C on a Chirascan spectrometer (Applied Photophysics, Surrey, UK) using a quartz cell with a 1.0 mm path length, recording from 180 to 260 nm. A scanning speed of 50 nm/min was used and the bandwidth was 1 nm. The optical path and slit width were 0.1 cm and 0.1 nm, respectively. […], 50% TFE (Macklin, Shanghai, China) was used to mimic the hydrophobic condition of the microbial membrane, and 25 mM SDS (Macklin, Shanghai, China) micelles were used to mimic the negatively charged prokaryotic membrane. The observed ellipticity was converted to molar ellipticity using the following equation: θ=θobs(MRW/10×c×l) where [θ] is the molar ellipticity (deg·cm^2·dmol^−1), θobs is the observed ellipticity corrected for the buffer at a given wavelength (mdeg), MRW is the mean residual molecular weight (molecular weight/number of amino acids), c is the peptide concentration (mg/mL), and l is the path length (cm). Assuming lipopeptides were a two-state model, the percentage in the α-helix structure of the MDLs was calculated using the following equation: α-helical content=−([θ]222 +2000)/30,000×100%

[2] = Hydrophobicity assay (RP-HPLC retention time); type: physicochemical; conditions: chromatographic, ChromCore120 C18 column 4.6 x 250 mm 5 μm; 0.1 mg/mL in deionized water; A 0.1% TFA in water, B 0.1% TFA in acetonitrile; 5% B to 90% B over 30 min; 1 mL/min; UV 220 nm; three independent experiments
Excerpt: The hydrophobicity, amphipathicity, and positive charge distribution of lipopeptides are crucial for their antimicrobial activities. Among these, hydrophobicity has been deemed essential for promoting a hydrophobic interaction with the lipid bilayer, leading to membrane disruption, cytoplasm leakage, and eventual cell death. Lipopeptides with different peptide sequences and chain lengths usually show different hydrophobicities, generating different RTs in the RP-HPLC analysis. The more hydrophobic the lipopeptide, the longer the RT on the column.
Each MDL was dissolved and diluted to 0.1 mg/mL in deionized water (obtained in-house) and then subjected to RP-HPLC on a ChromCore120 C18 column (4.6 × 250 mm, 5 μm) (NanoChrom, Suzhou, China) using 0.1% trifluoroacetic acid (TFA) (Macklin, Shanghai, China) in water as solvent A and 0.1% TFA in acetonitrile (Merck, Darmstadt, Germany) as solvent B. The elution gradient was as follows: 5% B to 90% B over 30 min, 90% B maintained for 2 min, and 90% B to 5% B over 1 min. The flow rate was 1 mL/min and measurements were taken at 220 nm. The retention time was recorded for each MDL.

E. coli ATCC 25922 = assay: Salt sensitivity (MIC in the presence of physiological salts); type: cell-based, Escherichia coli; set-up: key to MIC, NaCl / MIC, KCl / MIC, MgCl2: MIC in μg/mL (two-fold dilutions 256 to 0.25 μg/mL); conditions: for MIC, MgCl2: 1 mM MgCl2, unit not given in Table 4; for MIC, FeCl3: 4 mM FeCl3, unit not given in Table 4; for MIC, KCl: 4.5 mM KCl; for MIC, KCl / MIC, NaCl: unit not given in Table 4; for MIC, NaCl: 150 mM NaCl; for MIC, Control: no added salt, unit not given in Table 4 (Table 3 MIC in μg/mL)
Protocol: as §1, §2

## CCCCCCCCCC(=O)NCC(=O)N[C@H](C(=O)NCC(=O)N[C@@H](C)C(=O)N[C@H](C(=O)N[C@@H](CC(C)C)C(=O)N[C@@H](CCCCN)C(=O)N[C@H](C(=O)N[C@@H](CC(C)C)C(=O)N[C@H](C(=O)N[C@H](C(=O)NCC(=O)N[C@@H](CC(C)C)C(=O)N1CCC[C@H]1C(=O)N[C@@H](C)C(=O)N[C@@H](CC(C)C)C(=O)N[C@H](C(=O)N[C@@H](CO)C(=O)N[C@@H](Cc1c[nH]c2ccccc12)C(=O)N[C@H](C(=O)N[C@@H](CCCCN)C(=O)N[C@@H](CCCNC(=N)N)C(=O)N[C@@H](CCCCN)C(=O)N[C@@H](CCCNC(=N)N)C(=O)N[C@@H](CCC(N)=O)C(=O)N[C@@H](CCC(N)=O)C(N)=O)[C@@H](C)CC)[C@@H](C)CC)[C@@H](C)O)[C@@H](C)O)C(C)C)C(C)C)[C@@H](C)CC [Peptide C10-Mel]
S. aureus ATCC 43300
  MIC, MgCl2: 32
  MIC, FeCl3: 32
  MIC, KCl: 8
  MIC, NaCl: 2
  MIC, Control: 2
[1]; 25 mM SDS
  α-Helix, %: 17.1%
  β-Fold, %: 28.8%
[1]; 50% TFE
  α-Helix, %: 18.4%
  β-Fold, %: 22.1%
[1]; PBS Buffer
  α-Helix, %: 7.5%
  β-Fold, %: 41.1%
[2]
  RT, Min (RP-HPLC retention time, measure of hydrophobicity): 20.541 ± 0.029 min
E. coli ATCC 25922
  MIC, MgCl2: 32
  MIC, FeCl3: 32
  MIC, KCl: 16
  MIC, NaCl: 8
  MIC, Control: 8

## CCCCCCCCCCCC(=O)NCC(=O)N[C@H](C(=O)NCC(=O)N[C@@H](C)C(=O)N[C@H](C(=O)N[C@@H](CC(C)C)C(=O)N[C@@H](CCCCN)C(=O)N[C@H](C(=O)N[C@@H](CC(C)C)C(=O)N[C@H](C(=O)N[C@H](C(=O)NCC(=O)N[C@@H](CC(C)C)C(=O)N1CCC[C@H]1C(=O)N[C@@H](C)C(=O)N[C@@H](CC(C)C)C(=O)N[C@H](C(=O)N[C@@H](CO)C(=O)N[C@@H](Cc1c[nH]c2ccccc12)C(=O)N[C@H](C(=O)N[C@@H](CCCCN)C(=O)N[C@@H](CCCNC(=N)N)C(=O)N[C@@H](CCCCN)C(=O)N[C@@H](CCCNC(=N)N)C(=O)N[C@@H](CCC(N)=O)C(=O)N[C@@H](CCC(N)=O)C(N)=O)[C@@H](C)CC)[C@@H](C)CC)[C@@H](C)O)[C@@H](C)O)C(C)C)C(C)C)[C@@H](C)CC [Peptide C12-Mel]
S. aureus ATCC 43300
  MIC, MgCl2: 64
  MIC, FeCl3: 64
  MIC, KCl: 32
  MIC, NaCl: 16
  MIC, Control: 8
[1]; 25 mM SDS
  α-Helix, %: 15.9%
  β-Fold, %: 29.5%
[1]; 50% TFE
  α-Helix, %: 19%
  β-Fold, %: 21.5%
[1]; PBS Buffer
  α-Helix, %: 11.5%
  β-Fold, %: 31.3%
[2]
  RT, Min (RP-HPLC retention time, measure of hydrophobicity): 23.344 ± 0.004 min
E. coli ATCC 25922
  MIC, MgCl2: 128
  MIC, FeCl3: 128
  MIC, KCl: 32
  MIC, NaCl: 32

## CCCCCCCCCCCCCC(=O)NCC(=O)N[C@H](C(=O)NCC(=O)N[C@@H](C)C(=O)N[C@H](C(=O)N[C@@H](CC(C)C)C(=O)N[C@@H](CCCCN)C(=O)N[C@H](C(=O)N[C@@H](CC(C)C)C(=O)N[C@H](C(=O)N[C@H](C(=O)NCC(=O)N[C@@H](CC(C)C)C(=O)N1CCC[C@H]1C(=O)N[C@@H](C)C(=O)N[C@@H](CC(C)C)C(=O)N[C@H](C(=O)N[C@@H](CO)C(=O)N[C@@H](Cc1c[nH]c2ccccc12)C(=O)N[C@H](C(=O)N[C@@H](CCCCN)C(=O)N[C@@H](CCCNC(=N)N)C(=O)N[C@@H](CCCCN)C(=O)N[C@@H](CCCNC(=N)N)C(=O)N[C@@H](CCC(N)=O)C(=O)N[C@@H](CCC(N)=O)C(N)=O)[C@@H](C)CC)[C@@H](C)CC)[C@@H](C)O)[C@@H](C)O)C(C)C)C(C)C)[C@@H](C)CC [Peptide C14-Mel]
S. aureus ATCC 43300
  MIC, MgCl2: 256
  MIC, FeCl3: 256
  MIC, KCl: 64
  MIC, NaCl: 64
  MIC, Control: 32
[1]; 25 mM SDS
  α-Helix, %: 15.5%
  β-Fold, %: 31.7%
[1]; 50% TFE
  α-Helix, %: 16%
  β-Fold, %: 25.2%
[1]; PBS Buffer
  α-Helix, %: 12%
  β-Fold, %: 31%
[2]
  RT, Min (RP-HPLC retention time, measure of hydrophobicity): 25.621 ± 0.002 min
E. coli ATCC 25922
  MIC, MgCl2: 256
  MIC, FeCl3: 256
  MIC, KCl: 64
  MIC, NaCl: 128
  MIC, Control: 32

## CCCCCCCCCCCCCCCC(=O)NCC(=O)N[C@H](C(=O)NCC(=O)N[C@@H](C)C(=O)N[C@H](C(=O)N[C@@H](CC(C)C)C(=O)N[C@@H](CCCCN)C(=O)N[C@H](C(=O)N[C@@H](CC(C)C)C(=O)N[C@H](C(=O)N[C@H](C(=O)NCC(=O)N[C@@H](CC(C)C)C(=O)N1CCC[C@H]1C(=O)N[C@@H](C)C(=O)N[C@@H](CC(C)C)C(=O)N[C@H](C(=O)N[C@@H](CO)C(=O)N[C@@H](Cc1c[nH]c2ccccc12)C(=O)N[C@H](C(=O)N[C@@H](CCCCN)C(=O)N[C@@H](CCCNC(=N)N)C(=O)N[C@@H](CCCCN)C(=O)N[C@@H](CCCNC(=N)N)C(=O)N[C@@H](CCC(N)=O)C(=O)N[C@@H](CCC(N)=O)C(N)=O)[C@@H](C)CC)[C@@H](C)CC)[C@@H](C)O)[C@@H](C)O)C(C)C)C(C)C)[C@@H](C)CC [Peptide C16-Mel]
S. aureus ATCC 43300
  MIC, MgCl2: >256
  MIC, FeCl3: >256
  MIC, KCl: 256
  MIC, NaCl: 128
  MIC, Control: 64
[1]; 25 mM SDS
  α-Helix, %: 15.2%
  β-Fold, %: 33%
[1]; 50% TFE
  α-Helix, %: 14.3%
  β-Fold, %: 26.8%
[1]; PBS Buffer
  α-Helix, %: 12.5%
  β-Fold, %: 30.4%
[2]
  RT, Min (RP-HPLC retention time, measure of hydrophobicity): 26.892 ± 0.005 min
E. coli ATCC 25922
  MIC, MgCl2: >256
  MIC, FeCl3: >256
  MIC, KCl: 256
  MIC, NaCl: >256
  MIC, Control: 128
